Patent US10961228B2, “JAK1 selective inhibitors” (AstraZeneca AB, priority 2017, dated 2021)

Experiments:
[1] = target: recombinant JAK1 (amino acids 866-1154) (Homo sapiens (Human), UniProt P23458); assay: Enzyme inhibition studies, JAK1 (5 mM ATP, Caliper); format: biochemical
Protocol: (§1) JAK enzyme was expressed as N-terminal GST fusion in insect cells and purified by glutathione-affinity and size-exclusion chromatographies. Enzymes were assayed at their approximated high end of physiological ATP concentration of 5 mM, in the presence of inhibitor dosed at 30, 3, 0.3, 0.03, 0.003 and 0 μM final test concentrations.
(§2) Phosphorylated and unphosphotylated peptides were separated and quantified by a Caliper LC3000 system (Caliper Life Sciences, MA) for calculating percent inhibition.

[2] = target: recombinant JAK3 (amino acids 781-1124) (Homo sapiens (Human), UniProt P52333); assay: Enzyme inhibition studies, JAK3 (5 mM ATP, Caliper); format: biochemical
Protocol: as §1, §2

[3] = system: IL-13 induced STAT6 promotor luciferase reporter in U937 monocytes (U937-STAT6-Luc); assay: Cellular interleukin (IL-13) induced JAK-STAT6-luciferase assay (pSTAT6); format: cell-based; conditions: Homo sapiens, U-937; IL-13 induced STAT6-luciferase, U937-STAT6-Luc cells
Protocol: Cells were harvested by centrifugation at 250 g for 5 min and resuspended in Assay buffer (20 mM HEPES, 1×HBSS and 0.1% BSA) to 1000 cells pr μl. For stimulation of cells was used interleukin (IL-13) also dissolved in Assay buffer to […]. […] Test and control compounds were applied to assay plates (low vol white 384-well plates) in serial dilutions from 10 mM to 0.5 nM at 5 nl pr well in DMSO.
To each well was added 4 μl cells and 4 μl interleukin (IL-13) and the plates were sealed and incubated at 37° C. for 4½ h and then at room temperature for 30 min. The assay was developed by addition of 4 μl pr well of SteadyGlo (Promega) and after […] the plates were read at an Envision plate reader with luminescence filter.

[4] = target: recombinant JAK2 (amino acids 831-1132) (Homo sapiens (Human), UniProt O60674); assay: Enzyme inhibition studies, JAK2 (5 mM ATP, Caliper); format: biochemical
Protocol: as §1, §2

Sequence of recombinant JAK3 (amino acids 781-1124) (P52333 781-1124): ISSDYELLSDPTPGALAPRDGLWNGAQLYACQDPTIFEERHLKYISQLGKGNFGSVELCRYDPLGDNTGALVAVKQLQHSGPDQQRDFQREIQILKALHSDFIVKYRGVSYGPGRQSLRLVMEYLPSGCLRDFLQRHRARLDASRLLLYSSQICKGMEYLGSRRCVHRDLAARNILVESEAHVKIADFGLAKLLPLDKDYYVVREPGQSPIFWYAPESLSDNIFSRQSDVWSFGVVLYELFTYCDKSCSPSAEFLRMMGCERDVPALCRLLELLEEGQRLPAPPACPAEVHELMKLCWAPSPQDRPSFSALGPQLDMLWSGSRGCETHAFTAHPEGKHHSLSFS
Sequence of recombinant JAK2 (amino acids 831-1132) (O60674 831-1132): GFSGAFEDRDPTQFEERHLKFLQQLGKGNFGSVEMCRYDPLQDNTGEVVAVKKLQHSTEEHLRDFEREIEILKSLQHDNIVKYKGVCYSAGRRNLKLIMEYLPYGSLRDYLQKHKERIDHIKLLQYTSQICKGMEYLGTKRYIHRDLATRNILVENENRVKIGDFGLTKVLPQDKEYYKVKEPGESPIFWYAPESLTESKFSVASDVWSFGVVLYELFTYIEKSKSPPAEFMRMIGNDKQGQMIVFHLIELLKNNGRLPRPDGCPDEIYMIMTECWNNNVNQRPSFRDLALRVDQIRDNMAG
Sequence of recombinant JAK1 (amino acids 866-1154) (P23458 866-1154): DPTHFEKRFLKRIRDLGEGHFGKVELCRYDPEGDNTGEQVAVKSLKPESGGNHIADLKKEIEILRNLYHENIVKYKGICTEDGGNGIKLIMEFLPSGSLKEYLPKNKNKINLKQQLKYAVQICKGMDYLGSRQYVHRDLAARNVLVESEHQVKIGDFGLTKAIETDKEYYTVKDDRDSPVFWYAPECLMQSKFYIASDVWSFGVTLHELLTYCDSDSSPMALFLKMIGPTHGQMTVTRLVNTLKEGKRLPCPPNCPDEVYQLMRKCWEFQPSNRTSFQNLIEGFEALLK

IC50 [1] | IC50 [2] | IC50 [3] | IC50 [4] | SMILES
0.013 µM | > 30 µM | 0.093 µM | – | CC(C(=O)Nc1cccc2c(-c3nc(Nc4cccc(S(C)(=O)=O)c4F)ncc3F)c[nH]c12)N1CCN(C)C[C@H]1C (stereo in doubt) [Example 49, (R)-2-((R)-2,4-dimethylpiperazin-1-yl)-N-(3-(5-fluoro-2-((2-fluoro-3-(methylsulfonyl)phenyl)amino)pyrimidin-4-yl)-1H-indol-7-yl)propanamide]
0.0485 µM | > 30 µM | 0.362 µM | > 30 µM | CC[C@@H](C(=O)Nc1cccc2c(-c3nc(Nc4cccc(S(C)(=O)=O)c4F)ncc3C)c[nH]c12)N1CCN(C)CC1C (stereo in doubt) [Example 50, (S)-2-((R)-2,4-dimethylpiperazin-1-yl)-N-(3-(2-((2-fluoro-3-(methylsulfonyl)phenyl)amino)-5-methylpyrimidin-4-yl)-1H-indol-7-yl)butanamide]
< 0.003 µM | > 30 µM | 0.024 µM | 0.612 µM | CC[C@H](C(=O)Nc1cccc2c(-c3nc(Nc4cccc(S(C)(=O)=O)c4F)ncc3C)c[nH]c12)N1CCN(C)CC1C (stereo in doubt) [Example 51, (R)-2-((R)-2,4-dimethylpiperazin-1-yl)-N-(3-(2-((2-fluoro-3-(methylsulfonyl)phenyl)amino)-5-methylpyrimidin-4-yl)-1H-indol-7-yl)butanamide]
0.348 µM | > 30 µM | 1.07 µM | > 30 µM | CC[C@@H](C(=O)Nc1cccc2c(-c3nc(Nc4cccc(S(C)(=O)=O)c4F)ncc3F)c[nH]c12)N1CCN(C)CC1C (stereo in doubt) [Example 52, (S)-2-((R)-2,4-dimethylpiperazin-1-yl)-N-(3-(5-fluoro-2-((2-fluoro-3-(methylsulfonyl)phenyl)amino)pyrimidin-4-yl)-1H-indol-7-yl)butanamide]
< 0.003 µM | > 30 µM | 0.048 µM | 2.08 µM | CC[C@H](C(=O)Nc1cccc2c(-c3nc(Nc4cccc(S(C)(=O)=O)c4F)ncc3F)c[nH]c12)N1CCN(C)CC1C (stereo in doubt) [Example 53, (R)-2-((R)-2,4-dimethylpiperazin-1-yl)-N-(3-(5-fluoro-2-((2-fluoro-3-(methylsulfonyl)phenyl)amino)pyrimidin-4-yl)-1H-indol-7-yl)butanamide]
0.0074 µM | > 30 µM | 0.0642 µM | 11.9 µM | CC[C@H](C(=O)Nc1cccc2c(-c3nc(Nc4cccc(S(C)(=O)=O)c4F)ncc3C)c[nH]c12)N1CCN(C)CC1C (stereo in doubt) [Example 60, (R)-2-((S)-2,4-dimethylpiperazin-1-yl)-N-(3-(2-((2-fluoro-3-(methylsulfonyl)phenyl)amino)-5-methylpyrimidin-4-yl)-1H-indol-7-yl)butanamide]
0.0428 µM | > 30 µM | 0.163 µM | > 30 µM | CC[C@@H](C(=O)Nc1cccc2c(-c3nc(Nc4cccc(S(C)(=O)=O)c4F)ncc3C)c[nH]c12)N1CCN(C)CC1C (stereo in doubt) [Example 61, (S)-2-((S)-2,4-dimethylpiperazin-1-yl)-N-(3-(2-((2-fluoro-3-(methylsulfonyl)phenyl)amino)-5-methylpyrimidin-4-yl)-1H-indol-7-yl)butanamide]
< 0.003 µM | > 30 µM | 0.041 µM | 1.58 µM | Cc1cnc(Nc2cccc(S(C)(=O)=O)c2F)nc1-c1c[nH]c2c(NC(=O)[C@@H](C)N3CCN(CCO)CC3)cccc12 [Example 1, (R)-N-(3-(2-((2-fluoro-3-(methylsulfonyl)phenyl)amino)-5-methylpyrimidin-4-yl)-1H-indol-7-yl)-2-(4-(2-hydroxyethyl)piperazin-1-yl)propanamide]
≤ 0.003 µM | > 30 µM | 0.032 µM | 7.35 µM | Cc1cnc(Nc2cccc(S(C)(=O)=O)c2F)nc1-c1c[nH]c2c(NC(=O)[C@@H](C)N3CCN(C)CC3)cccc12 [Example 2, (R)-N-(3-(2-((2-fluoro-3-(methylsulfonyl)phenyl)amino)-5-methylpyrimidin-4-yl)-1H-indol-7-yl)-2-(4-methylpiperazin-1-yl)propanamide]
< 0.003 µM | > 30 µM | 0.039 µM | 4.12 µM | CCS(=O)(=O)c1cccc(Nc2ncc(C)c(-c3c[nH]c4c(NC(=O)[C@@H](C)N5CCN(C)CC5)cccc34)n2)c1F [Example 3, (R)-N-(3-(2-(3-(ethylsulfonyl)-2-fluorophenylamino)-5-methylpyrimidin-4-yl)-1H-indol-7-yl)-2-(4-methylpiperazin-1-yl)propanamide]
< 0.003 µM | > 30 µM | 0.027 µM | 1.6 µM | Cc1cnc(Nc2cccc(S(=O)(=O)C3CC3)c2F)nc1-c1c[nH]c2c(NC(=O)[C@@H](C)N3CCN(C)CC3)cccc12 [Example 4]
0.0051 µM | > 30 µM | 0.029 µM | 5.02 µM | C[C@H](C(=O)Nc1cccc2c(-c3nc(Nc4cccc(S(C)(=O)=O)c4F)ncc3Cl)c[nH]c12)N1CCN(C)CC1 [Example 5]
0.0574 µM | > 30 µM | 0.172 µM | > 30 µM | Cc1cnc(Nc2cccc(S(C)(=O)=O)c2F)nc1-c1c[nH]c2c(NC(=O)[C@H](C)N3CCN(C)CC3)cccc12 [Example 6, (S)-N-(3-(2-((2-fluoro-3-(methylsulfonyl)phenyl)amino)-5-methylpyrimidin-4-yl)-1H-indol-7-yl)-2-(4-methylpiperazin-1-yl)propanamide]
– | – | 0.055 µM | – | Cc1cnc(Nc2cccc(S(C)(=O)=O)c2F)nc1-c1c[nH]c2c(NC(=O)[C@@H](C)N3C[C@H](C)N[C@@H](C)C3)cccc12 [Example 9, (R)-2-((3S,5S)-3,5-dimethylpiperazin-1-yl)-N-(3-(2-((2-fluoro-3-(methylsulfonyl)phenyl)amino)-5-methylpyrimidin-4-yl)-1H-indol-7-yl)propanamide]
0.213 µM | > 30 µM | 0.465 µM | – | COC[C@@H](C(=O)Nc1cccc2c(-c3nc(Nc4cccc(S(C)(=O)=O)c4F)ncc3C)c[nH]c12)N1CCN(C)CC1 [Example 15, (S)-N-(3-(2-((2-fluoro-3-(methylsulfonyl)phenyl)amino)-5-methylpyrimidin-4-yl)-1H-indol-7-yl)-3-methoxy-2-(4-methylpiperazin-1-yl)propanamide]
< 0.003 µM | > 30 µM | 0.018 µM | – | COC[C@H](C(=O)Nc1cccc2c(-c3nc(Nc4cccc(S(C)(=O)=O)c4F)ncc3C)c[nH]c12)N1CCN(C)CC1 [Example 16, (R)-N-(3-(2-((2-fluoro-3-(methylsulfonyl)phenyl)amino)-5-methylpyrimidin-4-yl)-1H-indol-7-yl)-3-methoxy-2-(4-methylpiperazin-1-yl)propanamide]
– | – | 0.051 µM | – | CC[C@H](C(=O)Nc1cccc2c(-c3nc(Nc4cccc(S(C)(=O)=O)c4F)ncc3C)c[nH]c12)N1C[C@H](C)N(C)[C@@H](C)C1 [Example 20, (R)-N-(3-(2-((2-fluoro-3-(methylsulfonyl)phenyl)amino)-5-methylpyrimidin-4-yl)-1H-indol-7-yl)-2-((3S,5S)-3,4,5-trimethylpiperazin-1-yl)butanamide]
1.84 µM | > 30 µM | > 4.2 µM | – | COC[C@@H](C(=O)Nc1cccc2c(-c3nc(Nc4cccc(S(C)(=O)=O)c4F)ncc3F)c[nH]c12)N1CCN(C)CC1 [Example 34, (S)-N-(3-(5-fluoro-2-((2-fluoro-3-(methylsulfonyl)phenyl)amino)pyrimidin-4-yl)-1H-indol-7-yl)-3-methoxy-2-(4-methylpiperazin-1-yl)propanamide]
– | – | 0.099 µM | – | CCOC[C@H](C(=O)Nc1cccc2c(-c3nc(Nc4cccc(S(C)(=O)=O)c4F)ncc3F)c[nH]c12)N1CCN(C)CC1 [Example 63, (R)-3-ethoxy-N-(3-(5-fluoro-2-((2-fluoro-3-(methylsulfonyl)phenyl)amino)pyrimidin-4-yl)-1H-indol-7-yl)-2-(4-methylpiperazin-1-yl)propanamide]
– | – | 0.051 µM | – | COC[C@H](C(=O)Nc1cccc2c(-c3nc(Nc4cccc(S(C)(=O)=O)c4F)ncc3F)c[nH]c12)N1CCNCC1 [Example 66, (R)-N-(3-(5-fluoro-2-(2-fluoro-3-(methylsulfonyl)phenylamino)pyrimidin-4-yl)-1H-indol-7-yl)-3-methoxy-2-(piperazin-1-yl)propanamide]
– | – | 1.39 µM | – | COC[C@@H](C(=O)Nc1cccc2c(-c3nc(Nc4cccc(S(C)(=O)=O)c4F)ncc3F)c[nH]c12)N1CCNCC1 [Example 67, (S)-N-(3-(5-fluoro-2-(2-fluoro-3-(methylsulfonyl)phenylamino)pyrimidin-4-yl)-1H-indol-7-yl)-3-methoxy-2-(piperazin-1-yl)propanamide]
